Test results from ChEMBL document CHEMBL3351358, “LPM7 Inhibitors May Potentially Treat Autoimmune Diseases” (ACS Med Chem Lett, 2014).

How the values were obtained:
[1] = Inhibition of LPM7 in CpG type A-stimulated human PBMCs by CXCL10/IP10 detection based PBMC IP-10 assay
[2] = Inhibition of LPM7 beta 5c subunit in human Ramos cells using rh110-(wla)2 substrate by fluorogenic assay; type: cell-based
[3] = Inhibition of LPM7 beta 1c subunit in human Ramos cells using rh110-(Ile)2 substrate by fluorogenic assay; type: cell-based
[4] = Inhibition of LPM7 beta 1i subunit in human Ramos cells using rh110-(pal)2 substrate by fluorogenic assay; type: cell-based
[5] = Inhibition of LPM7 beta 5i subunit in human Ramos cells using ac-(anw)2-r110 substrate by fluorogenic assay; type: cell-based

SMILES: C[C@H](NC(=O)C1Cc2ccccc2C1)C(=O)N[C@@H](CCc1ccccc1)C(=O)N[C@@H](Cc1ccccc1)C(=O)C(=O)NCc1ccccc1
- EC50 [1]: 379 nM
- IC50 [2]: 14 nM
- IC50 [3]: 18100 nM
- IC50 [4]: 968 nM
- IC50 [5]: 4 nM

SMILES: CCCC[C@H](NC(=O)[C@H](Cc1c[nH]c2ccccc12)NC(=O)[C@H](C)NC(=O)C1=C(C)c2ccccc2C1)C(=O)C(=O)NCc1ccccc1
- EC50 [1]: 1220 nM
- IC50 [2]: 560 nM
- IC50 [3]: 3340 nM
- IC50 [4]: 142 nM
- IC50 [5]: 18 nM

SMILES: COc1ccc(C[C@H](NC(=O)[C@H](C)NC(=O)C2Cc3ccccc3C2)C(=O)N[C@@H](Cc2ccccc2)C(=O)C(=O)NCc2ccccc2)cc1
- EC50 [1]: 695 nM
- IC50 [2]: 55 nM
- IC50 [3]: 20000 nM
- IC50 [4]: 234 nM
- IC50 [5]: 3 nM

SMILES: C[C@H](NC(=O)OCc1ccccc1)C(=O)N[C@@H](CC(F)(F)F)C(=O)N[C@@H](Cc1ccccc1)C(=O)C(=O)NCc1ccccc1
- EC50 [1]: 5030 nM
- IC50 [2]: 6160 nM
- IC50 [3]: 20000 nM
- IC50 [4]: 2730 nM
- IC50 [5]: 524 nM
